Data taken from PubChem BioAssay (NCI).
“And” between values parts separate entries of the source, which are not always exact repeats. Equal entries are not always repeated.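 Compound exposure: 48 hours, 5 concentrations, 96-well plates. Here, GI50 denotes the concentration required for 50% inhibition of growth. At the TGI there is no net growth.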

Experiments:
Test in all cases: NCI-60 cell line screen, 48 h
A498 renal = test system: A498 renal
HL-60(TB) leukemia = test system: HL-60(TB) leukemia
MALME-3M melanoma = test system: MALME-3M melanoma
HCC-2998 colon = test system: HCC-2998 colon
MDA-N = test system: MDA-N
CAKI-1 renal = test system: CAKI-1 renal
SNB-19 CNS = test system: SNB-19 CNS
KM12 colon = test system: KM12 colon
BT-549 breast = test system: BT-549 breast
UACC-257 melanoma = test system: UACC-257 melanoma
MDA-MB-435 = test system: MDA-MB-435
NCI-H226 lung = test system: NCI-H226 lung

SMILES	TGI (A498 renal)	TGI (HL-60(TB) leukemia)	TGI (MALME-3M melanoma)	TGI (HCC-2998 colon)	TGI (MDA-N)	TGI (CAKI-1 renal)	TGI (SNB-19 CNS)	TGI (KM12 colon)	TGI (BT-549 breast)	TGI (UACC-257 melanoma)	TGI (MDA-MB-435)	TGI (NCI-H226 lung)	GI50 (A498 renal)	GI50 (SNB-19 CNS)
S=C(S)N1CCN(c2ccccc2)CC1	> 100 µM	64.4 µM	> 100 µM	> 100 µM	> 100 µM	> 100 µM	> 100 µM	> 100 µM	> 100 µM	> 100 µM	> 100 µM	–	–	–
CNC(=O)OCC1=C(COC(=O)NC)C(C)N(c2ccccc2)C1 (configuration not stated)	7.51 µM	47 µM	97.4 µM	80.3 µM	> 100 µM	–	> 100 µM	> 100 µM	> 100 µM	> 100 µM	96.4 µM	77.3 µM	–	–
COc1ccc(NC(=S)Nc2c(C)n(C)n(-c3ccccc3)c2=O)cc1	> 100 µM	> 100 µM	> 100 µM	> 100 µM	> 100 µM	> 100 µM	> 100 µM	> 100 µM	> 100 µM	> 100 µM	> 100 µM	> 100 µM	–	–
COc1ccc(-c2nc(SC)n(C3OC(COC(C)=O)C(OC(C)=O)C(OC(C)=O)C3OC(C)=O)c(=O)c2C#N)cc1 (configuration not stated)	44.5 µM and > 100 µM	> 100 µM	> 100 µM	> 100 µM	> 100 µM	> 100 µM	> 100 µM	> 100 µM	> 100 µM	> 100 µM	> 100 µM	> 100 µM	8.43 µM and 44.1 µM	26.3 µM and > 100 µM
OC[C@@H](O)[C@H](O)[C@@H](O)/C=N/Nc1ccc(Cl)nn1	> 100 µM	> 100 µM	> 100 µM	> 100 µM	> 100 µM	> 100 µM	> 100 µM	> 100 µM	> 100 µM	> 100 µM	> 100 µM	–	–	–
C=CC(C)(C)n1cc(C2=C(O)C(=O)C(c3c(CC=C(C)C)[nH]c4ccccc34)=C(O)C2=O)c2ccccc21	2.99 µM	4.69 µM	3.9 µM	2.33 µM	4.08 µM	7.16 µM	10.8 µM	2.63 µM	1.91 µM	9.3 µM	2.38 µM	3.64 µM	–	–
COC(=O)/C=C/c1cnc2c(c1)oc(=O)n2C	> 100 µM	> 100 µM	> 100 µM	> 100 µM	> 100 µM	> 100 µM	> 100 µM	> 100 µM	> 100 µM	> 100 µM	> 100 µM	> 100 µM	–	–
COc1ccc2c(c1)C(=O)[C@@](Nc1ccc(C=O)cc1)(OC)[C@@](OC)(c1ccc([N+](=O)[O-])cc1)O2	> 10 µM	> 10 µM	> 10 µM	> 10 µM	> 10 µM	> 10 µM	> 10 µM	> 10 µM	> 10 µM	> 10 µM	> 10 µM	> 10 µM	–	–
COc1ccc(C(=O)N(Cc2cccnc2)C(=S)N(Cc2cccnc2)C(=O)c2ccc(OC)cc2)cc1	> 100 µM	> 100 µM	> 100 µM	> 100 µM	> 100 µM	> 100 µM	> 100 µM	> 100 µM	> 100 µM	> 100 µM	> 100 µM	> 100 µM	–	–
COc1ccc2c(c1)c(=O)c1c(NCCCN(C)C)ccc3ncn2c31	24.2 µM	25.1 µM	26 µM	9.86 µM	18.8 µM	22.6 µM	20.5 µM	15.5 µM	32 µM	27 µM	19.4 µM	22.2 µM	–	–
NC(Cc1ccc(O)cn1)C(=O)O (configuration not stated)	> 100 µM	> 100 µM	> 100 µM	> 100 µM	> 100 µM	> 100 µM	> 100 µM	> 100 µM	> 100 µM	> 100 µM	> 100 µM	> 100 µM	–	–
CC(=O)OCCCCn1cnc2c(Cl)nc(Nc3ccccc3)nc21	> 100 µM	> 100 µM	> 100 µM	> 100 µM	> 100 µM	62 µM	–	> 100 µM	> 100 µM	> 100 µM	> 100 µM	> 100 µM	–	–
CC1OC(OC2C[C@](O)(C(=O)CBr)Cc3c(O)c4c(c(O)c32)C(=O)c2ccccc2C4=O)C(F)C(O)C1O (some centres not stated)	30.9 µM	3.22 µM	16.5 µM	> 100 µM	44.7 µM	49 µM	> 70.5 µM	> 84.1 µM	> 100 µM	39.6 µM	31.2 µM	36.4 µM	–	–
Nc1ncnc2c1cnn2COCC(O)CO (configuration not stated)	> 100 µM	–	> 100 µM	> 100 µM	> 100 µM	> 100 µM	> 100 µM	> 100 µM	> 100 µM	> 100 µM	> 100 µM	> 100 µM	–	–
COc1cc(C(=O)N(C(=S)OC23CC4CC(CC(C4)C2)C3)c2ccccc2)cc(OC)c1OC	92.5 µM	45.8 µM	82.1 µM	61.4 µM	85.8 µM	> 100 µM	> 100 µM	> 100 µM	> 100 µM	> 100 µM	> 100 µM	> 100 µM	–	–
CCOC(=O)c1csc(-c2nc(CCNC(=O)c3ccccc3)sc2Cl)n1	> 100 µM	> 100 µM	> 100 µM	> 100 µM	> 100 µM	–	> 100 µM	> 100 µM	> 100 µM	> 100 µM	> 100 µM	> 100 µM	–	–
COC(=O)C1SC[C@H]2C(=O)N(c3ccccc3)C(=O)N12 (some centres not stated)	> 100 µM	> 100 µM	> 100 µM	> 100 µM	> 100 µM	> 100 µM	> 100 µM	> 100 µM	> 100 µM	> 100 µM	> 100 µM	> 100 µM	–	–
COc1ncc(C#CC(=O)c2ccccc2)c(OC)n1	32.4 µM	4.68 µM	3.62 µM	13.3 µM	3.73 µM	7.3 µM	31.6 µM	22.9 µM	5.33 µM	14.7 µM	11.5 µM	5.46 µM	–	–
